Patent US8859574B2 (IRM LLC, priority 2008, dated 2014)

molecular target: T1, IGF-1R Ba/F3 (Homo sapiens, UniProt P08069); test: Ba/F3 Cell Viability Inhibition Assay (IGF-1R Ba/F3); format: cell-based, murine; settings: Tel-TK transformed Ba/F3 cells, 48 hours, Britelite luminescence
T1 construct: fused on or other part: TEL- (or BCR-) IGF-1R in Ba/F3: the kinase part holds the site
Summary of the method: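 IL-3-independent murine Ba/F3 cells transformed with a TEL/BCR-fused IGF-1R kinase were seeded at 3750 cells/well and exposed to serially diluted compound for 48 h at 37 °C. Viability was read by Britelite luminescence. IC50 is the concentration giving 50% of DMSO-control viability, from a logistic fit.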

T1 sequence (P08069 999-1274 limits assumed): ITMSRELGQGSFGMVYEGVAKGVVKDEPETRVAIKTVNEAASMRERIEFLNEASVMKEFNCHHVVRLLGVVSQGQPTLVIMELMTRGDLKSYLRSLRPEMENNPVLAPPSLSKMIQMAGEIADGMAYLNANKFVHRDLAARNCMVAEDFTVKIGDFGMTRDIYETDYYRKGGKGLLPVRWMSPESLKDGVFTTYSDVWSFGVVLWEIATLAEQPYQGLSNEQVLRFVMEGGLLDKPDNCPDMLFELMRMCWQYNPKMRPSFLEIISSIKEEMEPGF

| Structure (SMILES) | IC50 [nM] |
| --- | --- |
| Cc1cc(Nc2nc(Nc3cc(C)c(C4CC[N+]([O-])(C5CCOCC5)CC4)cc3F)ncc2Cl)n[nH]1 (stereo not drawn) [Compound 294, 4-(4-(5-chloro-4-(5-methyl-1H-pyrazol-3-ylamino)pyrimidin-2-ylamino)-5-fluoro-2-methylphenyl)-1-(tetrahydro-2H-pyran-4-yl)piperidine 1-oxide] | 64 |
| Cc1cc(Nc2nc(Nc3cc(C)c(C4CC[N+]([O-])(C5CS(=O)(=O)C5)CC4)cc3F)ncc2Cl)n[nH]1 (stereo not drawn) [Compound 295, 5-Chloro-N2-{4-[1-(1,1-dioxo-1λ6-thietan-3-yl)-1-oxide-piperidin-4-yl]-2-fluoro-5-methyl-phenyl}-N4-(5-ethyl-1H-pyrazol-3-yl)-pyrimidine-2,4-diamine] | 39 |
| Cc1cc(Nc2nc(Nc3cc(C)c(C4CCN(C5CNC5)CC4)cc3F)ncc2Cl)n[nH]1 [Compound 296, N2-(4-(1-(azetidin-3-yl)piperidin-4-yl)-2-fluoro-5-methylphenyl)-5-chloro-N4-(5-methyl-1H-pyrazol-3-yl)pyrimidine-2,4-diamine] | 101 |
| Cc1cc(Nc2nc(Nc3cc(C)c(C4CCN(Cc5cccnc5)CC4)cc3F)ncc2Cl)n[nH]1 [Compound 297, 5-chloro-N2-(2-fluoro-5-methyl-4-(1-(pyridin-3-ylmethyl)piperidin-4-yl)phenyl)-N4-(5-methyl-1H-pyrazol-3-yl)pyrimidine-2,4-diamine] | 79 |
| Cc1cc(Nc2nc(Nc3cc(C)c(C4CCN(C5CCC(O)CC5)CC4)cc3F)ncc2Cl)n[nH]1 (stereo not drawn) [Compound 298, 4-(4-(4-(5-chloro-4-(5-methyl-1H-pyrazol-3-ylamino)pyrimidin-2-ylamino)-5-fluoro-2-methylphenyl)piperidin-1-yl)cyclohexanol] | 26 |
| Cc1cc(Nc2nc(Nc3cc(C)c(C4CCN(C5CCNC5)CC4)cc3F)ncc2Cl)n[nH]1 (stereo not drawn) [Compound 299, 5-chloro-N2-(2-fluoro-5-methyl-4-(1-(pyrrolidin-3-yl)piperidin-4-yl)phenyl)-N4-(5-methyl-1H-pyrazol-3-yl)pyrimidine-2,4-diamine] | 101 |
| Cc1cc(Nc2nc(Nc3cc(C)c(C4CCN(C5CN(S(C)(=O)=O)C5)CC4)cc3F)ncc2Cl)n[nH]1 [Compound 300, 5-chloro-N2-(2-fluoro-5-methyl-4-(1-(1-(methylsulfonyl)azetidin-3-yl)piperidin-4-yl)phenyl)-N4-(5-methyl-1H-pyrazol-3-yl)pyrimidine-2,4-diamine] | 32 |
| Cc1cc(Nc2nc(Nc3cc(C)c(C4CCN(C5CCN(S(C)(=O)=O)C5)CC4)cc3F)ncc2Cl)n[nH]1 (stereo not drawn) [Compound 301, 5-chloro-N2-(2-fluoro-5-methyl-4-(1-(1-(methylsulfonyl)pyrrolidin-3-yl)piperidin-4-yl)phenyl)-N4-(5-methyl-1H-pyrazol-3-yl)pyrimidine-2,4-diamine] | 38 |
| Cc1noc(CN2CCC(c3cc(C)c(Nc4ncc(Cl)c(Nc5cc(C)[nH]n5)n4)cc3C)CC2)n1 [Compound 302, 5-chloro-N2-(2,5-dimethyl-4-(1-((3-methyl-1,2,4-oxadiazol-5-yl)methyl)piperidin-4-yl)phenyl)-N4-(5-methyl-1H-pyrazol-3-yl)pyrimidine-2,4-diamine] | 6 |
| CCc1noc(CN2CCC(c3cc(C)c(Nc4ncc(Cl)c(Nc5cc(C)[nH]n5)n4)cc3C)CC2)n1 [Compound 303, 5-chloro-N2-(4-(1-((3-ethyl-1,2,4-oxadiazol-5-yl)methyl)piperidin-4-yl)-2,5-dimethylphenyl)-N4-(5-methyl-1H-pyrazol-3-yl)pyrimidine-2,4-diamine] | 6 |
| Cc1cc(Nc2nc(Nc3cc(C)c(C4CCN(Cc5noc(C)n5)CC4)cc3C)ncc2Cl)n[nH]1 [Compound 304, 5-chloro-N2-(2,5-dimethyl-4-(1-((5-methyl-1,2,4-oxadiazol-3-yl)methyl)piperidin-4-yl)phenyl)-N4-(5-methyl-1H-pyrazol-3-yl)pyrimidine-2,4-diamine] | 5 |
| Cc1cc(Nc2nc(Nc3cc(C)c(C4CCN(Cc5noc(C(C)C)n5)CC4)cc3C)ncc2Cl)n[nH]1 [Compound 305, 5-chloro-N2-(4-(1-((5-isopropyl-1,2,4-oxadiazol-3-yl)methyl)piperidin-4-yl)-2,5-dimethylphenyl)-N4-(5-methyl-1H-pyrazol-3-yl)pyrimidine-2,4-diamine] | 25 |
| Cc1cc(Nc2nc(Nc3cc(C)c(C4CCN(C5COC5)CC4)cc3F)ncc2Cl)n[nH]1 [Compound 306, 5-chloro-N2-(2-fluoro-5-methyl-4-(1-(oxetan-3-yl)piperidin-4-yl)phenyl)-N4-(5-methyl-1H-pyrazol-3-yl)pyrimidine-2,4-diamine] | 15 |
| Cc1cc(Nc2nc(Nc3cc(C)c(C4CCN(Cc5ccccn5)CC4)cc3C)ncc2Cl)n[nH]1 [Compound 307, 5-chloro-N2-(2,5-dimethyl-4-(1-(pyridin-2-ylmethyl)piperidin-4-yl)phenyl)-N4-(5-methyl-1H-pyrazol-3-yl)pyrimidine-2,4-diamine] | 7 |
| Cc1cc(Nc2nc(Nc3cc(C)c(C4CCN(Cc5cccnc5)CC4)cc3C)ncc2Cl)n[nH]1 [Compound 308, 5-chloro-N2-(2,5-dimethyl-4-(1-(pyridin-3-ylmethyl)piperidin-4-yl)phenyl)-N4-(5-methyl-1H-pyrazol-3-yl)pyrimidine-2,4-diamine] | 6 |
| Cc1cc(Nc2nc(Nc3cc(C)c(C4CCN(Cc5ccncc5)CC4)cc3C)ncc2Cl)n[nH]1 [Compound 309, 5-chloro-N2-(2,5-dimethyl-4-(1-(pyridin-4-ylmethyl)piperidin-4-yl)phenyl)-N4-(5-methyl-1H-pyrazol-3-yl)pyrimidine-2,4-diamine] | 8 |
| Cc1cc(Nc2nc(Nc3cc(C)c(C4CCN([C@H]5CC[C@H](O)CC5)CC4)cc3F)ncc2Cl)n[nH]1 [Compound 310, Trans-4-(4-(4-(5-chloro-4-(5-methyl-1H-pyrazol-3-ylamino)pyrimidin-2-ylamino)-5-fluoro-2-methylphenyl)piperidin-1-yl)cyclohexanol] | 27 |
| Cc1cc(Nc2nc(Nc3cc(C)c(C4CCN([C@H]5CC[C@@H](O)CC5)CC4)cc3F)ncc2Cl)n[nH]1 [Compound 311, Cis-4-(4-(4-(5-chloro-4-(5-methyl-1H-pyrazol-3-ylamino)pyrimidin-2-ylamino)-5-fluoro-2-methylphenyl)piperidin-1-yl)cyclohexanol] | 21 |
| Cc1cc(Nc2nc(Nc3cc(C)c(C4CCN([C@@H]5CCN(S(C)(=O)=O)C5)CC4)cc3F)ncc2Cl)n[nH]1 [Compound 312, (R)-5-chloro-N2-(2-fluoro-5-methyl-4-(1-(1-(methylsulfonyl)pyrrolidin-3-yl)piperidin-4-yl)phenyl)-N4-(5-methyl-1H-pyrazol-3-yl)pyrimidine-2,4-diamine] | 25 |
| Cc1cc(Nc2nc(Nc3cc(C)c(C4CCN([C@H]5CCN(S(C)(=O)=O)C5)CC4)cc3F)ncc2Cl)n[nH]1 [Compound 313, (S)-5-chloro-N2-(2-fluoro-5-methyl-4-(1-(1-(methylsulfonyl)pyrrolidin-3-yl)piperidin-4-yl)phenyl)-N4-(5-methyl-1H-pyrazol-3-yl)pyrimidine-2,4-diamine] | 30 |
| Cc1cc(Nc2nc(Nc3cc(C)c(C4CCN(Cc5cncnc5)CC4)cc3F)ncc2Cl)n[nH]1 [Compound 314, 5-Chloro-N^2-(2-fluoro-5-methyl-4-(1-(pyrimidin-5-ylmethyl)piperidin-4-yl)phenyl)-N^4-(5-methyl-1H-pyrazol-3-yl)pyrimidine-2,4-diamine] | 37 |
